Data on 17 compounds can be found in ChEMBL document CHEMBL5046313, “Synthesis and Optimization of Nitroxide-Based Inhibitors of Ferroptotic Cell Death in Cancer Cells and Macrophages” (ACS Med Chem Lett, 2022).

For one data set, the system named is HT-1080. As to the kind of experiment: Anti-ferroptotic activity against Erastin-induced ferroptosis in human HT-1080 cells assessed as cell activity measured after 24 hrs by Cell Titer-Glo luminescent assay. Particulars: HT-1080, 24 h. Format: functional, cell-based.
For the next data set, the system named is RAW264.7. Briefly: Anti-ferroptotic activity against RSL-3 induced ferroptosis in mouse RAW264.7 cells assessed as cell activity measured after 24 hrs by Cell Titer-Glo luminescent assay. Format: functional, cell-based. Particulars: RAW264.7, 24 h.
Data set [1] is described as follows: Lipophilicity, log P of the compound. As to conditions: octanol/water. Format: physicochemical.
Data set [2] can be described thus: Metabolic stability in human liver S9 fraction assessed as half life measured upto 60 mins in presence of NADPH by LC-MS/MS analysis. It is filed as ADME, subcellular.
Data set [3] in a line: Metabolic stability in mouse liver S9 fraction assessed as half life measured upto 60 mins in presence of NADPH by LC-MS/MS analysis. Format: ADME, subcellular.

For the compound `CCOC(=O)c1ccc(NC2CCCCC2)c(N)c1`, the EC50 is 70 nM in the data set on HT-1080 and 40 nM in the data set with RAW264.7. The same compound returned a logP in data set [1] of 2.8.
Turning to `CC1(C)CC(NC(=O)C(C)(C)/C=C/[C@H](NC(=O)OC(C)(C)C)c2ccccc2)CC(C)(C)N1`, in the data set with HT-1080, the half-maximal effective concentration (EC50) was 330 nM. The compound also registered a logP in data set [1] of 4.2.
In the case of `CC(C)C[C@@H](/C=C/C1(C(=O)NC2CC(C)(C)NC(C)(C)C2)CC1)NC(=O)OC(C)(C)C`, the EC50 stood at 800 nM in the data set on HT-1080 and 1130 nM with RAW264.7. In addition, in data set [1], the logP is 3.5.
On to `CC1(C)CC(NC(=O)C(/C=C/[C@@H](NC(=O)OC(C)(C)C)c2ccc(F)cc2)(Cc2ccc(F)cc2)Cc2ccc(F)cc2)CC(C)(C)N1`, for which the EC50 in the data set on HT-1080 is 280 nM. In data set [1], this compound came in with a logP of 7.9.
In the case of `CC(C)C[C@@H](/C=C/C(Cc1ccccc1)(Cc1ccccc1)C(=O)NC1CC(C)(C)NC(C)(C)C1)NC(=O)OC(C)(C)C`, the concentration for a half-maximal effect (EC50) in the data set with HT-1080 stood at 130 nM; in the data set on RAW264.7, 370 nM. In addition, the half-life was 7 min in data set [2] and 3 min in data set [3]. In data set [1], this compound yielded a logP of 7.2.
On to `CC1(C)CC(NC(=O)C(/C=C/[C@@H](NC(=O)OC(C)(C)C)c2ccoc2)(Cc2ccc(F)cc2)Cc2ccc(F)cc2)CC(C)(C)N1`, for which the EC50 with HT-1080 stood at 430 nM. This compound also came in with a logP in data set [1] of 6.
With `CC(C)C[C@@H](/C=C/C(C)(C)C(=O)NC1CC(C)(C)NC(C)(C)C1)NC(=O)OC(C)(C)C`, the EC50 stood at 240 nM in the data set with HT-1080 and 1150 nM with RAW264.7. The same compound yielded a logP in data set [1] of 4.
As for `CC1(C)CC(NC(=O)C(/C=C/[C@@H](NC(=O)OC(C)(C)C)c2ccc(F)cc2)(Cc2ccc(F)cn2)Cc2ccc(F)cn2)CC(C)(C)N1`, in the data set with HT-1080, the EC50 is above 2000 nM. In data set [1], this compound gave a logP of 5.8.
The matching figures for `CC(C)C[C@@H](/C=C/C1(C(=O)NC2CC(C)(C)NC(C)(C)C2)CCOCC1)NC(=O)OC(C)(C)C`: 2200 nM and 3.1.
In the case of `CC1(C)CC(NC(=O)C/C=C/[C@H](NC(=O)OC(C)(C)C)c2ccccc2)CC(C)(C)N1`, the EC50 in the data set with HT-1080 is 1300 nM; with RAW264.7, 2760 nM. Also, the logP in data set [1] came out at 2.9.
Regarding `CC(C)C[C@H](/C=C/C(C)(C)C(=O)NC1CC(C)(C)NC(C)(C)C1)NC(=O)OC(C)(C)C`, the EC50 in the data set on HT-1080 is 250 nM; with RAW264.7, 1170 nM. Besides, the half-life was determined as 7 min in data set [2] and 3 min in data set [3]. Also, the logP in data set [1] came out at 4.
The matching figures for `CC(C)C[C@@H](/C=C/CC(=O)NC1CC(C)(C)NC(C)(C)C1)NC(=O)OC(C)(C)C`: 3580 nM, 4090 nM, 5 min, 9 min and 2.8.
In the case of `CC1(C)CC(NC(=O)C(/C=C/[C@H](NC(=O)OC(C)(C)C)c2ccoc2)(Cc2ccc(F)cc2)Cc2ccc(F)cc2)CC(C)(C)N1`, the EC50 with HT-1080 turned out to be 240 nM. Further, the logP in data set [1] was found to be 6.
The matching figures for `CC(C)C[C@H](/C=C/C(Cc1ccc(F)cc1)(Cc1ccc(F)cc1)C(=O)NC1CC(C)(C)NC(C)(C)C1)NC(=O)OC(C)(C)C`: 180 nM and 7.6.
Consider `CC1(C)CC(NC(=O)C(/C=C/[C@H](NC(=O)OC(C)(C)C)c2ccc(F)cc2)(Cc2ccc(F)cc2)Cc2ccc(F)cc2)CC(C)(C)N1`, for which the 50% effective concentration (EC50) in the data set with HT-1080 turned out to be 340 nM; with RAW264.7, 250 nM. Also, the half-life in data set [2] was determined as 7 min; in data set [3] it was 3 min. The same compound came in with a lipophilicity (logP) in data set [1] of 7.9.
Regarding `CC(C)C[C@@H](/C=C/C(Cc1ccc(F)cc1)(Cc1ccc(F)cc1)C(=O)NC1CC(C)(C)NC(C)(C)C1)NC(=O)OC(C)(C)C`, the figures for the EC50 with HT-1080 and with RAW264.7 were 330 nM and 600 nM, respectively. This compound also had a logP in data set [1] of 7.6.
Regarding `CC(C)C[C@@H](/C=C/C1(C(=O)NC2CC(C)(C)NC(C)(C)C2)CCCC1)NC(=O)OC(C)(C)C`, the EC50 with HT-1080 worked out at 560 nM. The compound further had a logP in data set [1] of 4.4.
